In patent US20190314312A1, “COMBINATION THERAPY TO INCREASE ENDOGENOUS NITRIC OXIDE (NO) SYNTHESIS” (Yeda Research and Development Co. Ltd., priority 2016, published 2019):
“Also recorded” adds a separate entry of the source.

Columns and labels:
Assay type in all cases: in vivo, mouse
C57BL/6J.OlaaHsd mice [1] = experiment: DSS-induced colitis, treatment with arginine, citrulline, NaNO2, fisetin or citrulline plus fisetin; conditions: for weight loss: 1% DSS 6 days; for Histology score for colitis: FIG. 3D; for clinical improvement in colitis severity: evaluated by change in weight, histological score and colon length, vs control
Experimental: Colitis was induced in Vav1^Cre:As1^f/f mice and CD11c^Cre:As1^f/f with 1.5% DSS and with 0.8% DSS in the Villin^Cre:As1^f/f (wt/vol), (Dextran Sodium Sulfate, MP Biomedicals; molecular weight 36,000-50,000 Da). The powder was dissolved in the drinking water for 6 days, followed by 5 days of supplementing regular water^20. Each group consisted of eight to ten, 8-10 weeks old, male mice. Experiments were repeated at least three times. “f/f”—flox/flox.
Colonoscopy was performed on days 7 and 11 of the experiment to monitor for severity of colitis. For the procedure, a high resolution mouse video endoscopic system was used, which consists of a miniature endoscope (scope 1.9 mm outer diameter), a xenon light source, a triple chip camera, and an air pump to achieve regulated inflation of the mouse bowel (Karl Storz, Tuttlingen, Germany). Mice were anesthetized by the administration of 4-5% of isoflurane in 100% oxygen at a rate of 0.2-0.5 L/min or by the administration of 100 mg/kg Ketamine/10 mg/kg Xylazine mixture IP, after which, the endoscope was introduced via the anus and the colon was carefully insufflated with an air pump before analysis of the colonic mucosa. The endoscopic procedure was viewed on a color monitor and digitally recorded on tape. Colitis was scored according to the Murine endoscopic index of colitis severity (MEICS), considering differences in the thickness of the bowel wall, changes in blood vessel integrity, mucosal surface, stool consistency or the presence of fibrin, scored each between 0 and 3. The cumulative score ranged from 0 (no signs of inflammation) to 15 (signs of severe inflammation)^21.
Mice were treated with 1% (wt/vol) DSS for 6 days, followed by administration of either arginine 1% (wt/vol) solution (Sigma-Aldrich, St. Louis, Mo., catalogue number A8094) in drinking water, citrulline 1% (wt/vol) (L-citrulline, Chem-Impex International), NaNO2 100 mg (Sigma-Aldrich, St. Louis, Mo., catalogue number S2252), or water as control for additional 6 days.
Fisetin was given by intraperitoneal (i.p.) injection (1 mg/animal) in 30 μL of DMSO twice weekly. The control group was injected with 30 μL of DMSO twice weekly. Each group consisted of ten, 8-weeks old, male mice. Experiments were repeated three times.
Histopathology. On the day of sacrifice, colons were removed and their length was measured. Colon was fixed in 2.5% PFA solution overnight at 4° C., then embedded in paraffin, sectioned and stained with H&E. Tissues were examined in a blinded manner by a pathologist and scored on a 0-4 scale based on the parameters of inflammation severity^20.

As1 = experiment: Immunohistochemistry staining of distal colon sections for As1; conditions: after colitis induction, vs control mice with colitis; FIG. 3E, 4A
Experimental: Four micrometer paraffin embedded tissue sections were deparaffinized and rehydrated. Endogenous peroxidase was blocked with three percent H2O2 in methanol. Sections undergoing for ALS staining were incubated in cold acetone at −20° C. for 7 minutes. For F4/80 and MAC-2 staining, the present inventors performed antigen retrieval in Tris-EDTA pH 9 and 10 mM citric acid pH 6, for 10 minutes, respectively, using a low boiling program in the microwave to break protein cross-links and unmask antigens. After pre-incubation with 20% normal horse serum and 0.2% Triton X-100 for 1 hour at RT (root temperature), sections were incubated with the primary antibodies as follow; ASL (1:100, Abcam, ab97370, CA, USA); F4/80 (1:50, Serotec, Kidllington, UK); Mac-2 (1:400, Cedarlane, N.C., USA). For fluorescent double-staining of ASL and CD11c the mouse anti ASL (1:50 Santa Cruz Biotechnology, Inc. sc-166787, TX, USA) and rabbit anti CD11c (1:50, ab52632) were used. All antibodies were diluted in PBS containing 2% normal horse serum and 0.2% Triton. Sections were incubated overnight at RT followed by 48 hours at 4° C. Sections were washed three times in PBS and incubated with secondary biotinylated IgG at RT (room temperature) for 1.5 hour, washed three times in PBS and incubated with avidin-biotin Complex (Elite-ABC kit, Vector Lab, CA, USA) at RT for additional 90 minutes followed by DAB (Sigma) reaction. For the fluorescent staining the CY2 conjugated anti mouse and CY3 conjugated streptavidin (1:100 and 1:200 respectively, Jackson ImmunoResearch, West Grove, Pa.) were used.

C57BL/6J.OlaaHsd mice [2] = experiment: DSS-induced colitis, treatment with arginine, citrulline, NaNO2, fisetin or citrulline plus fisetin; conditions: day 12
intestine = experiment: Tunnel staining of intestine (apoptosis); conditions: colitis mice, citrulline vs control; FIGS. 3F-H
Experimental: Tunnel staining was performed by using ApopTag kit detection according to manufacturer's instructions (Millipore, CA, USA). Stained sections were examined and photographed by a fluorescence or bright field microscope (Eclipse Ni-U; Nikon, Tokyo, Japan) equipped with Plan Fluor objectives (10; 20×; 40×) connected to a monochrome camera (DS-Qi1, Nikon).

enterocytes = experiment: FACS analysis of colon epithelial cells (enterocytes) after colitis induction
Experimental: Colon segment was flushed with cold PBS, longitudinally cut open and rinsed to remove residual luminal contents. Tissue was cut into 3- to 5-mm pieces and incubated in HBSS medium containing EDTA 0.5 M and Hepes 10 mM at 37° C. for 20 minutes, shaken at 180 rpm, to separate epithelial fraction. Supernatant was centrifuged at 4° C. at 500 g for 10 minutes. Recovered tissue was digested in HBSS medium with 2% fetal bovine serum (FBS), 0.05% collagenase II and 0.05% DNase I (Sigma) for 40 minutes. at 37° C., shaken at 180 rpm. LP cells were filtered through 65 μm mesh and centrifuged at 4° C. at 500 g for 10 minutes. The present inventors prepared single cell suspensions from mouse colon by enzymatic digestion and analyzed by polychromatic flow cytometry. Samples were stained with conjugated antibodies or matching isotype controls according to manufacturer's instructions. Data were acquired on an LSRII (BD Biosciences) or FACSCalibur instrument (Becton-Dickinson) with CellQuest software, with a MacsQuant instrument (Miltenyi, Bergisch Gladbach, Germany), and analyzed using BD FACSDiva 6 or FlowJo software (version 7.6.5, or version vX.0.7 Tree Star Inc) or MacsQuant. Colon cells were stained for 30 min at 4° C. in flow cytometry buffer (PBS, 10% FCS and 0.02% azide). For antigens that require intracellular staining (As1, iNOS and S-nitrosocystein), cell surface staining was followed by cell fixation and permeabilization with the Cytofix/Cytoperm kit (BD Biosciences) according to the manufacturer's instructions. For staining, the present inventors used a lineage cocktail of antibodies anti-CD45-APC, Anti-CD64-PE, Anti-CD11c-PB, Anti-326-APC cy7, Anti CD31-PE cy7 (all from BioLegend). After staining for cell surface antigens, intracellular NO was detected by incubation of cells for 15 min at 37° C. with 10 μM DAF-FM diacetate followed by extensive washing, according to the manufacturer's instructions (Molecular Probes). Staining without addition of the DAF-FM probe was considered to be the baseline for gating the positive population. As1 was detected using anti-As1-ALEXA FLUOR® 488 (BD Biosciences), iNOS using anti-iNOS followed by anti-rat 488 (Jackson ImmunoResearch), and nitrosylation using anti-S-nitrosocystein (from abcam) followed by anti-mouse 488 (Jackson ImmunoResearch).

[3] = then arginine 1%, citrulline 1% or NaNO2 100 mg in drinking water 6 days vs water control, FIG. 3A
[4] = arginine, citrulline or NaNO2 vs water control, FIG. 3C
[5] = arginine, citrulline or NaNO2 vs water control
[6] = arginine, citrulline or NaNO2 vs water control, FIG. 3B

SMILES	weight loss (C57BL/6J.OlaaHsd mice [1]; [3])	colon length (C57BL/6J.OlaaHsd mice [1]; [4])	Histology score for colitis (C57BL/6J.OlaaHsd mice [1]; [5])	clinical improvement in colitis severity (C57BL/6J.OlaaHsd mice [1]; FIG. 3A-D)	As1 expression in distal colon sections (intestine, enterocytes) (As1)	endoscopic colitis score (C57BL/6J.OlaaHsd mice [2]; [6])	weight loss (C57BL/6J.OlaaHsd mice [1]; then fisetin 1 mg IP twice, citrulline 1% in drinking water or both vs DMSO control, FIG. 4B)	effectiveness in alleviating colitis severity compared among arginine, citrulline and NO donor (C57BL/6J.OlaaHsd mice [1]; FIG. 3A-D)	colon length (C57BL/6J.OlaaHsd mice [1]; fisetin, citrulline or both vs DMSO control, FIG. 4D)	histological score (C57BL/6J.OlaaHsd mice [1]; fisetin, citrulline or both vs DMSO control, FIG. 4E)	apoptosis in the intestine (intestine)	induction of NO synthesis in enterocytes, citrulline compared with arginine (enterocytes; FIGS. 3I-J)	NO levels in enterocytes (colon epithelial cells) (enterocytes; after colitis induction, treated vs control, FIGS. 3F-J, 4F-I)	endoscopic colitis score, citrulline in comparison to arginine (C57BL/6J.OlaaHsd mice [2]; FIG. 3B)	endoscopic colitis score (C57BL/6J.OlaaHsd mice [2]; fisetin, citrulline or both vs DMSO control, FIG. 4C)
O=N[O-].[Na+] [NaNO2]	significant weight loss reduction in the control group compared to the three treatments	significant reduction in colon length in the control group as compared to the treated colons	significantly lower	significant clinical improvement	reduced expression	Significant improvement									
N=C(N)NCCC[C@H](N)C(=O)O [arginine]	significant weight loss reduction in the control group compared to the three treatments	significant reduction in colon length in the control group as compared to the treated colons	significantly lower	significant clinical improvement	upregulated	Significant improvement									
NC(=O)NCCCC(N)C(=O)O (stereo not drawn) [citrulline, 2-Amino-5-(carbamoylamino)pentanoic acid]	significant weight loss reduction in the control group compared to the three treatments	significant reduction in colon length in the control group as compared to the treated colons	significantly lower	significant clinical improvement	upregulated; also recorded: more pronounce expression	Significant improvement	significant weight loss is documented in the control group compared to the treated mice	the most effective	significant longer	significant reduction	decreased apoptosis; also recorded: increased apoptosis in the control intestine as compare to colon taken from mice treated with citrulline	more effective than arginine	increased generation of NO	more beneficial treatment	significant improvement
